Results: US12209102B2, “Heterocyclic compounds and uses thereof” (Kumquat Biosciences Inc., priority 2022, dated 2025)

How the values were obtained:
[1] = biological target: T1, K-Ras G12V (Homo sapiens, UniProt P01116, G12V); assay: HTRF resonance energy transfer assay, K-Ras G12V / SOS1 interaction; type: biochemical; details: HTRF assay of Example 5; read-out: IC50 against K-Ras G12V
T1 construct: made in house; host or cells: E. coli BL21 (DE3)
How it was run: (§1)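 Compounds, tested in duplicate at 10 μM down to 0.01 μM, were read after about 10 min or more by HTRF as the 665/620 nm emission ratio (337 nm excitation) to derive IC50. This ratio reports FRET between an anti-GST-Eu donor on GST-K-Ras (wild-type or mutant) and an anti-6His-XL665 acceptor on His-hSOS1. Buffer: ~5 mM HEPES pH 7.4, 150 mM NaCl, 1 mM DTT, 0.05% BSA, 0.0025% Igepal.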

[2] = tested on: A549 cells; assay: Ras cellular assay, growth of cells with K-Ras G12S mutation (CellTiter-Glo); type: cell-based; details: Homo sapiens, cell growth, Example 9, G12S mutation, read-out: IC50 against A549 cells
How it was run: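 Growth inhibition IC50 values come from four-parameter fits of CellTiter-Glo luminescence, read about 6 days after compound addition. G12S-mutant A549 cells (e.g. 800/well, RPMI-1640 + 10% heat-inactivated FBS) were plated in tissue-culture-treated or ultra-low-attachment 384-well format. Dosing began the following day with serial dilutions, e.g. 10 points, 3-fold.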

[3] = tested on: SW620 cells; assay: Ras cellular assay, growth of cells with K-Ras G12V mutation (CellTiter-Glo); type: cell-based; details: Homo sapiens, SW-620; cell growth, Example 9, G12V mutation; read-out: IC50 against SW620 cells
How it was run: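 IC50 values came from a four-parameter fit of CellTiter-Glo viability, read roughly 6 days after dosing with e.g. a 10-point threefold dilution series. G12V-mutant SW620 cells (e.g. 800 per well) had been plated the previous day in RPMI-1640/10% heat-inactivated FBS, on tissue culture-treated or ultra-low attachment plates.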

[4] = biological target: T2, K-Ras G12D (Homo sapiens, UniProt P01116, G12D); assay: HTRF resonance energy transfer assay, K-Ras G12D / SOS1 interaction; type: biochemical; details: HTRF assay of Example 5; read-out: IC50 against K-Ras G12D
T2 construct: made in house; host or cells: E. coli BL21 (DE3)
How it was run: as §1

[5] = biological target: T3, K-Ras G12S (Homo sapiens, UniProt P01116, G12S); assay: HTRF resonance energy transfer assay, K-Ras G12S / SOS1 interaction; type: biochemical; details: HTRF assay of Example 5; read-out: IC50 against K-Ras G12S
T3 construct: made in house; host or cells: E. coli BL21 (DE3)
How it was run: as §1

[6] = tested on: GP2D cells; assay: Ras cellular assay, growth of cells with K-Ras G12D mutation (CellTiter-Glo); type: cell-based; details: cell growth, Example 9, G12D mutation, read-out: IC50 against GP2D cells
[7] = biological target: T4, K-Ras WT (Homo sapiens, UniProt P01116); assay: HTRF resonance energy transfer assay, K-Ras WT / SOS1 interaction; type: biochemical; details: HTRF assay of Example 5; read-out: IC50 against K-Ras WT
T4 construct: made in house; host or cells: E. coli BL21 (DE3)
How it was run: as §1

T3 sequence (P01116 1-188 isoform P01116-2 G12S): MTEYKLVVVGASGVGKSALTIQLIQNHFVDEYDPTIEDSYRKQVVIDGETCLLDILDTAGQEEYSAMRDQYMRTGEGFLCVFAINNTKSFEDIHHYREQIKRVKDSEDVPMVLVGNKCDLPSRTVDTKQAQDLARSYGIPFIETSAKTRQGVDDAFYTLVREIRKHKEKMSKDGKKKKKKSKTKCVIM
T1 sequence (P01116 1-188 isoform P01116-2 G12V): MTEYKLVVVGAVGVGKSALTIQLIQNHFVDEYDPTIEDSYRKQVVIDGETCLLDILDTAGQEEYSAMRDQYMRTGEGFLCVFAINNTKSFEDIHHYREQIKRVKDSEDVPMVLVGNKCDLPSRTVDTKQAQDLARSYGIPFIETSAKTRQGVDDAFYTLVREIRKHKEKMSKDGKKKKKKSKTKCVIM
T2 sequence (P01116 1-188 isoform P01116-2 G12D): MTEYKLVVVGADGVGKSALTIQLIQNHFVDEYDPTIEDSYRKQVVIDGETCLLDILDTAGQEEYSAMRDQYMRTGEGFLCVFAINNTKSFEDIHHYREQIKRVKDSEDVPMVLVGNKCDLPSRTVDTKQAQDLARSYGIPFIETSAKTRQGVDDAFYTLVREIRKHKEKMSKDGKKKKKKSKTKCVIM
T4 sequence (P01116 1-188 isoform P01116-2): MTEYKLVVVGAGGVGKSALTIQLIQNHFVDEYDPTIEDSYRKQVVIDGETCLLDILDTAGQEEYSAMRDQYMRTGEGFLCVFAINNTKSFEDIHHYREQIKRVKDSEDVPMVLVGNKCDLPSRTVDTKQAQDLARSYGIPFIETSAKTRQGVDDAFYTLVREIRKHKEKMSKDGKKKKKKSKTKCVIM

| SMILES | IC50 [1] [nM] | IC50 [2] [nM] | IC50 [3] [nM] | IC50 [4] [nM] | IC50 [5] [nM] | IC50 [7] [nM] | IC50 [6] [nM] |
| --- | --- | --- | --- | --- | --- | --- | --- |
| CN(C)CCN1CCOc2c(Cl)c(-c3ccc(F)c4sc(N)c(C#N)c34)c(F)c3nc(OC[C@@]45CCCN4C[C@H](F)C5)nc1c23 [Compound 994, 2-amino-4-(8-chloro-4-(2-(dimethylamino)ethyl)-10-fluoro-2-(((2R,7aS)-2-fluorotetrahydro-1H-pyrrolizin-7a(5H)-yl)methoxy)-5,6-dihydro-4H-[1,4]oxazepino[5,6,7-de]quinazolin-9-yl)-7-fluorobenzo[b]thiophene-3-carbonitrile] | < 100 | < 5000 | < 5000 | < 100 | < 100 | < 100 | < 500 |
| Cn1ncc(C#N)c1CN1CCOc2c(Cl)c(-c3ccc(F)c4sc(N)c(C#N)c34)c(F)c3nc(OC[C@@]45CCCN4C[C@H](F)C5)nc1c23 [Compound 641, 5-((9-(2-amino-3-cyano-7-fluorobenzo[b]thiophen-4-yl)-8-chloro-10-fluoro-2-(((2R,7aS)-2-fluorotetrahydro-1H-pyrrolizin-7a(5H)-yl)methoxy)-5,6-dihydro-4H-[1,4]oxazepino[5,6,7-de]quinazolin-4-yl)methyl)-1-methyl-1H-pyrazole-4-carbonitrile] | < 100 | < 5000 | < 5000 | < 100 | < 100 | < 100 | < 500 |
| N#Cc1c(N)sc2c(F)ccc(-c3c(Cl)c4c5c(nc(OC[C@@]67CCCN6C[C@H](F)C7)nc5c3F)N(C3CCN(C(=O)[C@@H]5N[C@H]5C5CC5)C3)CCO4)c12 (stereo partly drawn) [Compound 915, 2-amino-4-(8-chloro-4-(1-((2R,3S)-3-cyclopropylaziridine-2-carbonyl)pyrrolidin-3-yl)-10-fluoro-2-(((2R,7aS)-2-fluorotetrahydro-1H-pyrrolizin-7a(5H)-yl)methoxy)-5,6-dihydro-4H-[1,4]oxazepino[5,6,7-de]quinazolin-9-yl)-7-fluorobenzo[b]thiophene-3-carbonitrile] | < 100 | < 5000 | < 5000 | < 100 | < 100 | < 100 | < 500 |
| CN(C)C1(CN2CCOc3c(Cl)c(-c4ccc(F)c5sc(N)c(C#N)c45)c(F)c4nc(OC[C@@]56CCCN5C[C@H](F)C6)nc2c34)CC1 [Compound 725, 2-amino-4-(8-chloro-4-((1-(dimethylamino)cyclopropyl)methyl)-10-fluoro-2-(((2R,7aS)-2-fluorotetrahydro-1H-pyrrolizin-7a(5H)-yl)methoxy)-5,6-dihydro-4H-[1,4]oxazepino[5,6,7-de]quinazolin-9-yl)-7-fluorobenzo[b]thiophene-3-carbonitrile] | < 100 | < 5000 | < 5000 | < 100 | < 100 | < 100 | < 500 |
| N#Cc1c(N)sc2c(F)ccc(-c3c(Cl)c4c5c(nc(OC[C@@]67CCCN6C[C@H](F)C7)nc5c3F)N(C3CC5(CCN(C=O)C5)C3)CCO4)c12 (stereo partly drawn) [Compound 698, 2-amino-4-(8-chloro-10-fluoro-2-(((2R,7aS)-2-fluorotetrahydro-1H-pyrrolizin-7a(5H)-yl)methoxy)-4-(6-formyl-6-azaspiro[3.4]octan-2-yl)-5,6-dihydro-4H-[1,4]oxazepino[5,6,7-de]quinazolin-9-yl)-7-fluorobenzo[b]thiophene-3-carbonitrile] | < 100 | < 5000 | < 5000 | < 100 | < 100 | < 100 | < 500 |

The next lines start with results.

| IC50 [1] [nM] | IC50 [2] [nM] | IC50 [3] [nM] | IC50 [4] [nM] | IC50 [5] [nM] | IC50 [7] [nM] | SMILES | IC50 [6] [nM] |
| --- | --- | --- | --- | --- | --- | --- | --- |
| < 100 | < 5000 | < 5000 | < 100 | < 100 | < 100 | C[C@H]1CN(CCC(F)F)c2nc(OC[C@@]34CCCN3C[C@H](F)C4)nc3c(F)c(-c4ccc(F)c5sc(N)c(C#N)c45)c(Cl)c(c23)O1 [Compound 664, 2-amino-4-((6S)-8-chloro-4-(3,3-difluoropropyl)-10-fluoro-2-(((2R,7aS)-2-fluorotetrahydro-1H-pyrrolizin-7a(5H)-yl)methoxy)-6-methyl-5,6-dihydro-4H-[1,4]oxazepino[5,6,7-de]quinazolin-9-yl)-7-fluorobenzo[b]thiophene-3-carbonitrile] | < 500 |
| < 100 | < 5000 | < 5000 | < 100 | < 100 | < 100 | N#Cc1c(N)sc2c(F)ccc(-c3c(Cl)c4c5c(nc(OC[C@@]67CCCN6C[C@H](F)C7)nc5c3F)N(CC3(O)CCC3)CCO4)c12 [Compound 667, 2-amino-4-(8-chloro-10-fluoro-2-(((2R,7aS)-2-fluorotetrahydro-1H-pyrrolizin-7a(5H)-yl)methoxy)-4-((1-hydroxycyclobutyl)methyl)-5,6-dihydro-4H-[1,4]oxazepino[5,6,7-de]quinazolin-9-yl)-7-fluorobenzo[b]thiophene-3-carbonitrile] | < 500 |
| < 100 | < 5000 | < 5000 | < 100 | < 100 | < 100 | N#Cc1c(N)sc2c(F)ccc(-c3c(Cl)c4c5c(nc(OC[C@@]67CCCN6C[C@H](F)C7)nc5c3F)N([C@@H]3CCOC3)CCO4)c12 [Compound 617, 2-amino-4-(8-chloro-10-fluoro-2-(((2R,7aS)-2-fluorotetrahydro-1H-pyrrolizin-7a(5H)-yl)methoxy)-4-((R)-tetrahydrofuran-3-yl)-5,6-dihydro-4H-[1,4]oxazepino[5,6,7-de]quinazolin-9-yl)-7-fluorobenzo[b]thiophene-3-carbonitrile] | < 500 |
| < 100 | < 5000 | < 5000 | < 100 | < 100 | < 100 | N#Cc1c(N)sc2c(F)ccc(-c3c(Cl)c4c5c(nc(OC[C@@]67CCCN6C[C@H](F)C7)nc5c3F)N(C3CCN(C(=O)CC5CCOCC5)C3)CCO4)c12 (stereo partly drawn) [Compound 869, 2-amino-4-(8-chloro-10-fluoro-2-(((2R,7aS)-2-fluorotetrahydro-1H-pyrrolizin-7a(5H)-yl)methoxy)-4-(1-(2-(tetrahydro-2H-pyran-4-yl)acetyl)pyrrolidin-3-yl)-5,6-dihydro-4H-[1,4]oxazepino[5,6,7-de]quinazolin-9-yl)-7-fluorobenzo[b]thiophene-3-carbonitrile] | < 500 |
